Measured values from US11267826B2, “Penicillin-binding protein inhibitors” (priority 2017, dated 2022).

Columns and labels:
E. coli K12 PBP1a/b = assay: Bocillin FL competition binding assay, PBP1a/1b combined; set-up: species or system Escherichia coli K12; conditions: 15 min pre-incubation, PBP 1a/1b combined
How it was run: (§1)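 E. coli K12 membrane extracts (100 µg protein) pre-incubated 15 min with compound (0.005–2,480 µg/mL) in pH 7 phosphate/350 mM NaCl, then labelled with Bocillin FL 30 min at 35°C; SDS-PAGE fluorescence (ex 450/em 520 nm), μg/mL reported. PBP1a/1b unresolved, reported combined.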

E. coli PBP2 = target: T1, E. coli PBP2 (Escherichia coli, UniProt P0AD65); assay: Bocillin FL competition binding assay, PBP2; set-up: species or system Escherichia coli K12; conditions: 15 min pre-incubation
T1 construct: 100 μg's of total membrane protein extracts containing PBPs; endogenous in cells; host or cells: Escherichia coli K12, membrane protein fraction
How it was run: as §1

E. coli PBP3 = target: T2, E. coli PBP3 (Escherichia coli, UniProt P0AD68); assay: Bocillin FL competition binding assay, PBP3; set-up: species or system Escherichia coli K12; conditions: 15 min pre-incubation
T2 construct: 100 μg's of total membrane protein extracts containing PBPs; endogenous in cells; host or cells: Escherichia coli K12, membrane protein fraction
How it was run: as §1

S. aureus ATCC 29213 = assay: Broth microdilution MIC assay, S. aureus; type: cell-based; conditions: Staphylococcus aureus, ATCC29213; broth microdilution, 16-20 hours at 37° C.; read-out: S. aureus 29213 MIC
How it was run: (§2)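 Per CLSI: log-phase cultures (3-5 h, 37° C) seeded at 5×10^5 CFU/mL into cation-supplemented Mueller-Hinton broth containing 2-fold compound dilutions. After 16-20 h at 37° C, MIC taken visually as lowest growth-free well, for S. aureus ATCC 29213 and E. coli 901C.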

[1] = test system: hyper-permeable E. coli 901C; assay: Broth microdilution MIC assay, hyper-permeable E. coli; type: cell-based; conditions: Escherichia coli, read-out: E. coli 901C MIC
How it was run: as §2

E. coli K12 PBP1b = target: T3, E. coli K12 PBP1b (Escherichia coli, UniProt P02919); assay: Competition binding assay using Bodipy-FL boronic acid probe (Example 125); conditions: Bodipy-FL boronic acid probe (Example 125) 30 μM, 10 minutes pre-incubation, 10 minutes reaction
T3 construct: endogenous in cells; host or cells: Escherichia coli K12, membrane protein fraction
Experimental: Penicillin binding proteins were isolated from Escherichia coli K12 by growth of Escherichia coli K12 from a single colony in 4 L of Luria-Bertani (LB) broth at 35° C. and 250 rpm to an OD600 nm of 0.5. The cells were harvested by centrifugation at 7,000×g for 10 min. at 4° C. Cells were resuspended and washed in 50 mM potassium phosphate pH 7.5. The cells were re-suspended in sonication buffer [50 mM Tris-HCl pH 7.5, 1 mM MgCl2, 1 mM beta-mercaptoethanol, and 5 μg/mL DNAse I] and sonicated by 4 passes of 30 seconds at 45 W on ice. The sample was clarified by centrifugation at 3,000×g to remove cell debris and unbroken cells and supernatant containing the membrane proteins was retained. The membrane proteins including the PBPs were further purified from soluble constituents by an ultracentrifugation step at 100,000×g for 30 min. at 4° C. The membrane proteins are washed twice with 10 mM sodium phosphate pH 7, resuspended in a volume of 5 mL, quantitated by BCA assay, adjusted to […] and frozen at −80° C. until use.
The adapted Bocillin FL competition binding method described herein incorporates a 15 min. pre-incubation of test compound with isolated PBPs to attempt to balance the difference in mechanism of inhibition between beta-lactams (largely irreversible covalent bond to active site Serine) and the boron-containing PBP inhibitor test compounds (reversible covalent bond to active site Serine). Briefly, 50 μL reactions consisted of 100 μg's of total membrane protein extracts containing PBPs incubated with a dilution series of test compound ranging from 0.005 μg/mL to 2,480 μg/mL in 10 mM sodium phosphate pH7 containing 350 mM NaCl. Thirty minute reactions at 35° C. were initiated by addition of […] Bocillin FL, quenched by addition of SDS-PAGE loading buffer containing sodium dodecyl sulfate (SDS) and heated for 15 minutes at 95° C. to denature proteins in preparation for SDS-polyacrylamide gel electrophoresis. The Bocillin FL labeled PBPs are then separated by SDS-PAGE in Novex NuPage 10% Bis-Tris pre-cast gels (Invitrogen). The SDS-PAGE gel, post-electrophoresis, is then washed in water to remove excess SDS for 10 minutes at room temperature and placed on the scanning bed of a GE Healthcare/Amersham Biosciences Storm 860 fluorescence scanner. The excitation wavelength is in the blue spectrum at 450 nm and the emission at 520 nm is captured by the instrument. Effective PBP inhibitors are detected by a reduction in Bocillin FL labeling of the particular PBP over the dose range of test compound in a dose-responsive manner. High molecular weight PBP 1a/1b are not resolved by these gels, thus we report HMW PBP binding results in μg/mL for PBPs 1a/1b combined as well as for PBP2 and PBP3.
To determine the ability of boronic acid-based test PBP inhibitors to bind Penicillin Binding Proteins (PBPs), a competition binding assay using a Bodipy-FL-labeled boronic acid PBP inhibitor (Example 125) was adapted from the classical method used to assess PBP potency of beta-lactams using Bocillin-FL (fluorescently-labeled penicillin V). The method is identical to that described in Example I for the Bocillin-FL competition binding assay with the following exceptions, the Bodipy-FL boronic acid probe (Example 125) is used at a final concentration of 30 μM, pre-incubation time of test compound with PBP enzymes is 10 minutes and reaction time is set for 10 minutes and reactions are prepared for SDS-PAGE analysis by simply adding SDS-containing loading buffer. Representative results are shown in Table 5, where A represents a potency of >1000 μg/mL, B represents a potency between 64 and 1000 μg/mL inclusive, and C represents a potency of <64 μg/mL. NT=Not Tested.

T3 sequence (P02919 whole entry): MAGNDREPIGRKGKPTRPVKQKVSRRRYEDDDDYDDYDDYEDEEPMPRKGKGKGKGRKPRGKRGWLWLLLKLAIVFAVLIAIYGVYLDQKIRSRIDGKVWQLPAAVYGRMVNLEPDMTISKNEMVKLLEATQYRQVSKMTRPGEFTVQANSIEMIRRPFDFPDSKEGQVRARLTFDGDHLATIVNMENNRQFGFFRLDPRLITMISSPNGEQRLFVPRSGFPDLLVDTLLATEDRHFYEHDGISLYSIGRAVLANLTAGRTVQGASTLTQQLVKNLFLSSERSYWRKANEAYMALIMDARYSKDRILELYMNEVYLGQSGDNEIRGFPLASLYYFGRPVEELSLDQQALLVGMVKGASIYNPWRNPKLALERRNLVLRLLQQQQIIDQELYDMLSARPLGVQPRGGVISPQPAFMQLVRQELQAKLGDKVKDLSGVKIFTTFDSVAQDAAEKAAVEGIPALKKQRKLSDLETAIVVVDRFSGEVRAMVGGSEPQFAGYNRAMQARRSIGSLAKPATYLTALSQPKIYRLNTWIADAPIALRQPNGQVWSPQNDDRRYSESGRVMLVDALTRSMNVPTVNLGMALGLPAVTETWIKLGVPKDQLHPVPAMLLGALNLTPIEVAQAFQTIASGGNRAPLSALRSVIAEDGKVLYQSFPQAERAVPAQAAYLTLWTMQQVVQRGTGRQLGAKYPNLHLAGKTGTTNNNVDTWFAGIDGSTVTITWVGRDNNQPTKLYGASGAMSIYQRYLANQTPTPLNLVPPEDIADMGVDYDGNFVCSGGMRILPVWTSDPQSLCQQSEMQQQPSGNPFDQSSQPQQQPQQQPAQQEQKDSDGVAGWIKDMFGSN
T1 sequence (P0AD65 whole entry): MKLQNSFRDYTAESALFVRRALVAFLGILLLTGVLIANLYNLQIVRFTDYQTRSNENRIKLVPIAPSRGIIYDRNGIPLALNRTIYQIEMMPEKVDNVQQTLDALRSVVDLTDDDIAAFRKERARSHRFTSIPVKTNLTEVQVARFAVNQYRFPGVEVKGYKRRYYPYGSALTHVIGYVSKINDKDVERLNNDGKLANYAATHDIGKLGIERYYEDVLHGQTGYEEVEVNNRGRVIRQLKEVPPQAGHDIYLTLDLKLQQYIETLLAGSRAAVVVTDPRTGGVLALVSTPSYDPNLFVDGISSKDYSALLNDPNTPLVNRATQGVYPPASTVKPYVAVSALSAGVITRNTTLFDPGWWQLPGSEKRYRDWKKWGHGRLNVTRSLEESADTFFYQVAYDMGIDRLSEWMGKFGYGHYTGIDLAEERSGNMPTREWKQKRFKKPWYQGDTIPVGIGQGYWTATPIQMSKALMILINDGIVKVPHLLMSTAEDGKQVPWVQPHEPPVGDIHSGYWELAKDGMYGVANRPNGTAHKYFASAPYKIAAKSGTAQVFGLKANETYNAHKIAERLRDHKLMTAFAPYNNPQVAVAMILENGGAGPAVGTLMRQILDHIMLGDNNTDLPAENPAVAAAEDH
T2 sequence (P0AD68 1-577): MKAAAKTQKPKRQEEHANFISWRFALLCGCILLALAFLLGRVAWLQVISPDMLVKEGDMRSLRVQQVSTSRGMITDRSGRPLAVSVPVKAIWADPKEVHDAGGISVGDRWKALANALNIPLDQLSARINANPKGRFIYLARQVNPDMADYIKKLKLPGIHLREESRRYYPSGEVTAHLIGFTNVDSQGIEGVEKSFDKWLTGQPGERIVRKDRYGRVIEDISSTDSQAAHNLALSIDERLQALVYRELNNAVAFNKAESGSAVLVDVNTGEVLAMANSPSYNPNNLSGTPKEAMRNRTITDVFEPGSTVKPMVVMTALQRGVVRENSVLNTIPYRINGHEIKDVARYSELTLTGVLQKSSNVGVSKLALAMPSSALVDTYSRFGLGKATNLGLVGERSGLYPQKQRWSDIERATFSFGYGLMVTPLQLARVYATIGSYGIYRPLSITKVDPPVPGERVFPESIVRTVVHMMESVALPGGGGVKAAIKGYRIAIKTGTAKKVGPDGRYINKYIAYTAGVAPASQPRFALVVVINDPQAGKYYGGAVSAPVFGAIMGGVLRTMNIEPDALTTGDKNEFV

CC(C)NC(=N)c1ccc(OCCO/N=C(\C(=O)N[C@H]2Cc3cccc(C(=O)O)c3OB2O)c2csc(N)n2)cc1 [Example 49, (R,Z)-3-(2-(2-aminothiazol-4-yl)-2-((2-(4-(N-isopropylcarbamimidoyl)phenoxy)ethoxy)imino)acetamido)-2-hydroxy-3,4-dihydro-2H-benzo[e][1,2]oxaborinine-8-carboxylic Acid]
E. coli K12 PBP1a/b Potency (E. coli K12 PBP1a/b): B (B represents a potency between 64 and 1000 μg/mL inclusive) | E. coli PBP2 Potency (E. coli PBP2): B (B represents a potency between 64 and 1000 μg/mL inclusive) | E. coli PBP3 Potency (E. coli PBP3): B (B represents a potency between 64 and 1000 μg/mL inclusive) | MIC (S. aureus ATCC 29213): 64 to 128 µg/mL | MIC [1]: < 64 µg/mL | E. coli K12 PBP1b Potency (E. coli K12 PBP1b): A (A represents a potency of >1000 μg/mL)

Nc1nc(/C(=N/OCC2CCNCC2)C(=O)N[C@H]2Cc3cccc(C(=O)O)c3OB2O)cs1 [Example 52, (R,Z)-3-(2-(2-aminothiazol-4-yl)-2-((piperidin-4-ylmethoxy)imino)acetamido)-2-hydroxy-3,4-dihydro-2H-benzo[e][1,2]oxaborinine-8-carboxylic Acid]
E. coli K12 PBP1a/b Potency (E. coli K12 PBP1a/b): A (A represents a potency of >1000 μg/mL) | E. coli PBP2 Potency (E. coli PBP2): A (A represents a potency of >1000 μg/mL) | E. coli PBP3 Potency (E. coli PBP3): A (A represents a potency of >1000 μg/mL) | MIC (S. aureus ATCC 29213): > 128 µg/mL | MIC [1]: < 64 µg/mL | E. coli K12 PBP1b Potency (E. coli K12 PBP1b): B (B represents a potency between 64 and 1000 μg/mL inclusive)

Nc1nc(/C(=N/OCC(=O)NC2CCNCC2)C(=O)N[C@H]2Cc3cccc(C(=O)O)c3OB2O)cs1 [Example 59, (R,Z)-3-(2-(2-aminothiazol-4-yl)-2-((2-oxo-2-(piperidin-4-ylamino)ethoxy)imino)acetamido)-2-hydroxy-3,4-dihydro-2H-benzo[e][1,2]oxaborinine-8-carboxylic Acid]
E. coli K12 PBP1a/b Potency (E. coli K12 PBP1a/b): B (B represents a potency between 64 and 1000 μg/mL inclusive) | E. coli PBP2 Potency (E. coli PBP2): C (C represents a potency of <64 μg/mL) | E. coli PBP3 Potency (E. coli PBP3): C (C represents a potency of <64 μg/mL) | MIC (S. aureus ATCC 29213): > 128 µg/mL | MIC [1]: < 64 µg/mL | E. coli K12 PBP1b Potency (E. coli K12 PBP1b): B (B represents a potency between 64 and 1000 μg/mL inclusive)

NC(=O)CO/N=C(\C(=O)N[C@H]1Cc2cccc(C(=O)O)c2OB1O)c1csc(N)n1 [Example 61, (R,Z)-3-(2-((2-amino-2-oxoethoxy)imino)-2-(2-aminothiazol-4-yl)acetamido)-2-hydroxy-3,4-dihydro-2H-benzo[e][1,2]oxaborinine-8-carboxylic Acid]
E. coli K12 PBP1a/b Potency (E. coli K12 PBP1a/b): C (C represents a potency of <64 μg/mL) | E. coli PBP2 Potency (E. coli PBP2): B (B represents a potency between 64 and 1000 μg/mL inclusive) | E. coli PBP3 Potency (E. coli PBP3): C (C represents a potency of <64 μg/mL) | MIC (S. aureus ATCC 29213): 64 to 128 µg/mL | MIC [1]: < 64 µg/mL | E. coli K12 PBP1b Potency (E. coli K12 PBP1b): C (C represents a potency of <64 μg/mL)

CC(C)(O/N=C(\C(=O)N[C@H]1Cc2cccc(C(=O)O)c2OB1O)c1csc(N)n1)C(=O)O [Example 68, (R,Z)-3-(2-(2-aminothiazol-4-yl)-2-(((2-carboxypropan-2-yl)oxy)imino)acetamido)-2-hydroxy-3,4-dihydro-2H-benzo[e][1,2]oxaborinine-8-carboxylic Acid]
E. coli K12 PBP1a/b Potency (E. coli K12 PBP1a/b): C (C represents a potency of <64 μg/mL) | E. coli PBP2 Potency (E. coli PBP2): C (C represents a potency of <64 μg/mL) | E. coli PBP3 Potency (E. coli PBP3): C (C represents a potency of <64 μg/mL) | MIC (S. aureus ATCC 29213): > 128 µg/mL | MIC [1]: < 64 µg/mL | E. coli K12 PBP1b Potency (E. coli K12 PBP1b): C (C represents a potency of <64 μg/mL)
